Data on three compounds can be found in patent US7749972B2, “1-substituted-7-(β-D-glycopyranosyloxy)(aza)indole compound and pharmaceutical containing the same” (Kissei Pharmaceutical Co., Ltd., priority 2005, dated 2010).

Structures are written as SMILES.

In one assay the target is T1, human SGLT1 (Homo sapiens, UniProt P13866).
T1 construct: expressed in transfected cells; host or cells: COS-7 cells, transient lipofection (Lipofectamine-2000), vector pcDNA3.1(-)
T1 sequence (P13866 1-664): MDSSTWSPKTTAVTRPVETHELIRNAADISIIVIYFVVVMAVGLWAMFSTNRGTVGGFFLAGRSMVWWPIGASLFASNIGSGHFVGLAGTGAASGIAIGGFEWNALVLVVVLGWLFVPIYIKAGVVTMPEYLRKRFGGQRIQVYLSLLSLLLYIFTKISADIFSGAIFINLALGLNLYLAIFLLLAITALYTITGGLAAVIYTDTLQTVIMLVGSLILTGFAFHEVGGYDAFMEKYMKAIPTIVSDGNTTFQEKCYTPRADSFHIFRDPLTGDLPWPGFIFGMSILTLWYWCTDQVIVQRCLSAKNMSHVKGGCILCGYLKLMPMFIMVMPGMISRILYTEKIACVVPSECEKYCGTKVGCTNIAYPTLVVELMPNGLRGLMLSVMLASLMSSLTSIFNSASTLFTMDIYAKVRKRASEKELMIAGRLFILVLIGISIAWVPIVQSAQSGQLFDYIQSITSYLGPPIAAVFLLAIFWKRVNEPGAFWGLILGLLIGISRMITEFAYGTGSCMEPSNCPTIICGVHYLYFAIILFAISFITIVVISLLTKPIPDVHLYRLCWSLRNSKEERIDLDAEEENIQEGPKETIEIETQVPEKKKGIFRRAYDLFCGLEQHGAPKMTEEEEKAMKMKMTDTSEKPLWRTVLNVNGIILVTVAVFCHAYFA
Description: Inhibition of methyl-α-D-glucopyranoside (α-MG) uptake in COS-7 cells expressing human SGLT1. It counts as cell-based. Particulars: COS-7 cells transiently expressing human SGLT1; 1 mM 14C-α-MG uptake, 37° C., 1 hour. The method, then: (§1) Assay for Inhibitory Effects on Human SGLT Activity
1) Cloning and Construction of the Vector Expressing Human SGLT1
The cDNA library was prepared for PCR amplification by reverse transcription from total RNA derived from human small intestine (Ori gene) using oligo-dT as a primer. Using this cDNA library as a template, the DNA fragment coding 1 to 2005 bp of human SGLT1 (ACCESSION: M24847), which was reported by Hediger et al., was amplified by PCR method and inserted into the multi-cloning site of pcDNA3.1(−) (Invitrogen). The DNA sequence inserted was perfectly matched to the previously reported sequence.
(§2) 3) Preparation of the Cells Expressing Human SGLT1 or SGLT2 […]
(§3) A mixture of non-labeled (Sigma) and ^14C-labeled α-MG (Amersham Pharmacia Biotech) was added to the uptake buffer (pH 7.4; containing 140 mM sodium chloride, 2 mM potassium chloride, […] calcium chloride, 1 mM magnesium chloride, 10 mM 2-[4-(2-hydroxyethyl)-1-piperazinyl]ethane sulfonic acid and 5 mM tris(hydroxymethyl)aminomethane) at the final concentration of 1 mM. […] Radioactivity was measured by means of micro-scintillation counter TopCount (Packard). One hundred % was set to the difference between the uptake in the control group and the basal uptake, and the uptake of methyl α-D-glucopyranoside at each drug concentration was calculated. […]

In a further assay the target is T2, human SGLT2 (Homo sapiens, UniProt P31639).
T2 construct: expressed in transfected cells; host or cells: COS-7 cells, transient lipofection (Lipofectamine-2000), vector pcDNA3.1(-)
T2 sequence (P31639 1-672): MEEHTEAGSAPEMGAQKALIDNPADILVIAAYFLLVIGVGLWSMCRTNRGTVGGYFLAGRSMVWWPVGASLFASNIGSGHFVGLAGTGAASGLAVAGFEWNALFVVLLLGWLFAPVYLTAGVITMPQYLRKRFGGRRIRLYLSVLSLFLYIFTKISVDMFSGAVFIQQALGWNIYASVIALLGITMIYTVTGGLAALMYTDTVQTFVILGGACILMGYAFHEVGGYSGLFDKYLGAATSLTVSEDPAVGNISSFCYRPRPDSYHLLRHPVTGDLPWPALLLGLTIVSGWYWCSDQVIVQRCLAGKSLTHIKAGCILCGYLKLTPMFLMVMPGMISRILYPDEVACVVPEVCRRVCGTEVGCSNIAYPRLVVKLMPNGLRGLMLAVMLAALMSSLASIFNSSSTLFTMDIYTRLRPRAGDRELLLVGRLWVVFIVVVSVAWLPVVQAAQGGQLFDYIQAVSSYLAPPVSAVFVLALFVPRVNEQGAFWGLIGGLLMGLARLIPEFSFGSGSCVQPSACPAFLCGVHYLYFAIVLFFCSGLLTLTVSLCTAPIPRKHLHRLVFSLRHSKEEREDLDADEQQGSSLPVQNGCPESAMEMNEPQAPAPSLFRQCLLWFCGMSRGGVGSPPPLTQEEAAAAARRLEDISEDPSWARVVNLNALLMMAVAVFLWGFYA
In words: Inhibition of methyl-α-D-glucopyranoside (α-MG) uptake in COS-7 cells expressing human SGLT2. Format: cell-based. Particulars: COS-7 cells transiently expressing human SGLT2; 1 mM 14C-α-MG uptake, 37° C., 1 hour. The method, then: as §1
2) Cloning and Construction of the Vector Expressing Human SGLT2
The cDNA library was prepared for PCR amplification by reverse transcription from total RNA derived from human kidney (Ori gene) using oligo-dT as a primer. Using this cDNA library as a template, the DNA fragment coding 2 to 2039 bp of human SGLT2 (ACCESSION: M95549, M95299), which was reported by R. G. Wells et al., was amplified by PCR method and inserted into the multi-cloning site of pcDNA3.1(−) (Invitrogen). The DNA sequence inserted was perfectly matched to the previously reported sequence.
as §2, §3

Turning to `Cc1ccc(Cn2ccc3cccc(O[C@@H]4O[C@H](CO)[C@@H](O)[C@H](O)[C@H]4O)c32)cc1` [Example 1, 7-(1-β-Glucopyranosyloxy)-1-(4-methylbenzyl)-1H-indole], the half-inhibitory concentration (IC50) (commonly the concentration that inhibits the measured activity by half) against human SGLT1 amounted to 0.235 µM.
The compound `OC[C@H]1O[C@@H](Oc2cccc3ccn(CCc4ccccc4)c23)[C@H](O)[C@@H](O)[C@@H]1O` [Example 4] had an IC50 at human SGLT2 of 0.066 µM.
Consider `OC[C@H]1O[C@@H](Oc2cccc3ccn(CCc4ccc(O)cc4)c23)[C@H](O)[C@@H](O)[C@@H]1O` [Example 7, 7-(β-D-Glucopyranosyloxy)-1-[2-(4-hydroxyphenyl)ethyl]-1H-indole], for which the values for the IC50 against human SGLT1 and against human SGLT2 were 0.052 µM and 0.016 µM, respectively.
